Experimental data from the supplement of paper PMC10307832.

Assays:
Assay in all cases: relative viability (nuclei count vs DMSO), 5 days (fraction); higher = more cells survive
[1] = compound: CN1C=C(C2=CC=CC=C21)/C=C\3/C4=C(C=CC=N4)NC3=O + CCNC(=O)c1noc(-c2cc(C(C)C)c(O)cc2O)c1-c1ccc(CN2CCOCC2)cc1 [Luminespib] (partner 0.01 µM)
In short: (§1)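 Relative viability equals treated-well nuclei counts divided by vehicle-well nuclei counts. Counts came from 4× images of lung cancer cell lines grown in 1536-well plates for 5 days after pin-tool dosing on the day after seeding. Dosing used one drug alone or a fixed anchor-drug dose plus five library-drug doses (not always all listed) in √10 steps, and values are medians of duplicate plates.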

Trametinib + Palbociclib = compound: CC(=O)Nc1cccc(-n2c(=O)n(C3CC3)c(=O)c3c(Nc4ccc(I)cc4F)n(C)c(=O)c(C)c32)c1 [Trametinib] + CC(=O)c1c(C)c2cnc(Nc3ccc(N4CCNCC4)cn3)nc2n(C2CCCC2)c1=O [Palbociclib] (partner 0.5 µM)
In short: as §1

Trametinib + Pemetrexed = compound: CC(=O)Nc1cccc(-n2c(=O)n(C3CC3)c(=O)c3c(Nc4ccc(I)cc4F)n(C)c(=O)c(C)c32)c1 [Trametinib] + Nc1nc2[nH]cc(CCc3ccc(C(=O)N[C@@H](CCC(=O)O)C(=O)O)cc3)c2c(=O)[nH]1 [Pemetrexed] (partner 0.2 µM)
In short: as §1

Trametinib + Bortezomib = compound: CC(=O)Nc1cccc(-n2c(=O)n(C3CC3)c(=O)c3c(Nc4ccc(I)cc4F)n(C)c(=O)c(C)c32)c1 [Trametinib] + CC(C)C[C@H](NC(=O)[C@H](Cc1ccccc1)NC(=O)c1cnccn1)B(O)O [Bortezomib] (partner 0.002 µM)
In short: as §1

Cell Line | relative viability ([1]; first compound 0.02 µM) | relative viability ([1]; first compound 0.06325 µM) | relative viability ([1]; first compound 0.2 µM) | relative viability ([1]; first compound 0.6325 µM) | relative viability ([1]; first compound 2 µM) | relative viability (Trametinib + Palbociclib; first compound 0.0025 µM) | relative viability (Trametinib + Palbociclib; first compound 0.007906 µM) | relative viability (Trametinib + Palbociclib; first compound 0.025 µM) | relative viability (Trametinib + Palbociclib; first compound 0.07906 µM) | relative viability (Trametinib + Palbociclib; first compound 0.25 µM) | relative viability (Trametinib + Pemetrexed; first compound 0.0025 µM) | relative viability (Trametinib + Pemetrexed; first compound 0.007906 µM) | relative viability (Trametinib + Pemetrexed; first compound 0.025 µM) | relative viability (Trametinib + Pemetrexed; first compound 0.07906 µM) | relative viability (Trametinib + Pemetrexed; first compound 0.25 µM) | relative viability (Trametinib + Bortezomib; first compound 0.0025 µM) | relative viability (Trametinib + Bortezomib; first compound 0.007906 µM) | relative viability (Trametinib + Bortezomib; first compound 0.025 µM) | relative viability (Trametinib + Bortezomib; first compound 0.07906 µM) | relative viability (Trametinib + Bortezomib; first compound 0.25 µM)
NCI-H522 | 1.32 | 0.937 | 1.02 | 1.18 | 1.12 | 1.01 | 0.936 | 0.693 | 0.859 | 0.668 | 1.04 | 1.07 | 0.75 | 0.742 | 0.752 |  |  |  |  | 
EBC-1 |  |  |  |  |  |  |  |  |  |  |  |  |  |  |  | 0.631 | 0.544 | 0.427 | 0.376 | 0.337
HCC-78 |  |  |  |  |  | 0.452 | 0.46 | 0.398 | 0.457 | 0.449 | 0.843 | 0.888 | 0.893 | 0.934 | 0.924 | 0.399 | 0.404 | 0.4 | 0.395 | 0.332
IA-LM |  |  |  |  |  |  |  |  |  |  |  |  |  |  |  | 0.621 | 0.392 | 0.174 | 0.178 | 0.111
NCI-H1703 |  |  |  |  |  |  |  |  |  |  |  |  |  |  |  | 0.294 | 0.263 | 0.372 | 0.369 | 0.287
NCI-H358 | 0.397 | 0.377 | 0.403 | 0.309 | 0.407 | 0.133 | 0.122 | 0.147 | 0.129 | 0.117 | 0.156 | 0.143 | 0.164 | 0.16 | 0.152 |  |  |  |  | 
NCI-H727 | 0.365 | 0.329 | 0.394 | 0.4 | 0.271 | 0.577 | 0.513 | 0.41 | 0.382 | 0.384 |  |  |  |  |  | 0.663 | 0.422 | 0.272 | 0.257 | 0.277
NCI-H1623 | 0.422 | 0.473 | 0.428 | 0.446 | 0.289 |  |  |  |  |  |  |  |  |  |  |  |  |  |  | 
NCI-H596 | 1 | 1.01 | 0.858 | 0.93 | 0.866 |  |  |  |  |  | 0.475 | 0.445 | 0.477 | 0.546 | 0.426 | 0.759 | 0.892 | 0.795 | 1.47 | 0.474
NCI-H1563 | 0.506 | 0.537 | 0.541 | 0.483 | 0.464 |  |  |  |  |  | 0.787 | 0.755 | 0.574 | 0.669 | 0.657 | 0.854 | 0.794 | 0.824 | 0.682 | 0.616
NCI-H1395 | 0.876 | 0.595 | 0.521 | 0.696 | 0.669 | 0.56 | 0.562 | 0.517 | 0.567 | 0.489 | 0.952 | 0.837 | 0.708 | 0.609 | 0.466 |  |  |  |  | 
NCI-H1944 | 0.706 | 0.742 |  | 0.767 | 0.897 | 0.316 | 0.246 | 0.223 | 0.207 | 0.163 | 0.514 | 0.429 | 0.39 | 0.318 | 0.29 |  |  |  |  | 
ABC-1 |  | 0.531 |  | 0.678 | 0.801 | 0.448 | 0.668 | 0.357 | 0.49 | 0.338 |  |  |  |  |  | 0.301 | 0.299 | 0.255 | 0.251 | 0.235
